Reference: patent US10017524B2, “Compound and pharmaceutical composition for neuropsychological disorder or malignant tumor” (KYOTO UNIVERSITY, priority 2012, dated 2018)

What was measured:
[1] = tested on: phosphorylation of a threonine residue at position 212 of tau protein by DYRK1A protein; experiment: Inhibitory activity on phosphorylation of tau protein in cultured cells expressing tau and DYRK1A (western blot, Thr212); assay type: cell-based; settings: compounds of 10 μM, phospho-Thr212 tau, cells expressing tau and DYRK1A
Protocol: The inhibitory activity of the compounds synthesized in the production examples on the phosphorylation of tau protein was evaluated by an evaluation system using the following cultured cells.
The cultured cells that can induce the expressions of tau protein and DYRK1A protein individually and that allow the phosphorylation of the tau protein to be evaluated depending on the activity of the DYRK1A protein were used in the evaluation system. […] Therefore, the inhibitory activity on the phosphorylation of the tau protein can be evaluated by inducing the expressions of both the tau protein and the DYRK1A protein, and evaluating the degree of phosphorylation of a threonine residue at position 212 of the tau protein.
The compounds 1, 4, and 6 to 9 (10 μM) were added to the evaluation system, and the phosphorylation of the tau protein was detected with the antibody that specifically recognizes the phosphorylation of a threonine residue at position 212 of the tau protein. […] The “control” represents the result of adding no compound.
The inhibitory activity of the compounds 1 and 2 on the phosphorylation of tau protein was evaluated in the same manner as the Experimental example 1.
The “control” represents the result of adding no compound.
The inhibitory activity of the compounds 3, 6, and 9 to 15 on the phosphorylation of tau protein was evaluated in the same manner as the experimental example 1. FIGS. 7 to 9 show an example of the results.

[2] = tested on: human lung adenocarcinoma-derived cell lines (PC-9); experiment: Growth inhibition, microscopic observation; assay type: cell-based; settings: PC-9 lines, microscope
[3] = tested on: PC-9-GR-step lines (gefitinib-resistant sub-lines of PC-9); experiment: Growth inhibition, microscopic observation; assay type: cell-based, human; settings: microscope
[4] = tested on: PC-9-GR-high lines; experiment: Growth inhibition, microscopic observation; assay type: cell-based, human; settings: microscope
[5] = tested on: MDA-MB-453 human breast cancer cells (triple-negative); experiment: Growth inhibition, adherent and non-adherent culture (Alamar Blue); assay type: cell-based; settings: MDA-MB-453, cells cultured to prevent adhering
Protocol: (§1) Specifically, the cells were seeded on a 24 Well plate, and the compounds at a predetermined concentration were added. After cultivation for 5 days, the number of cells was calculated by detecting the fluorescence intensity with Alamar Blue. The culture medium containing the compounds was replaced every day. FIGS. 10 to 12 show an example of the results.
(§2) In addition, the effect was also confirmed when the target cells were cultured to prevent them from adhering to each other.

[6] = tested on: MDA-MB-468 human breast cancer cells (triple-negative); experiment: as above; assay type: cell-based; settings: MDA-MB-468, cells cultured to prevent adhering
Protocol: as §1, §2

Structure (SMILES)	inhibitory effect on the phosphorylation of the tau protein [1]	also measured
N=C1NC(=O)/C(=C/c2ccc3oc4ccccc4c3c2)S1 [Compound 9, (Z)-5-[(dibenzo[b,d]furan-2-yl)methylene]-2-iminothiazolidin-4-one]	inhibitory effect	
CCN1/C(=C/C(C)=O)Sc2ccc3oc4ccc(Cl)cc4c3c21 [Compound 14, (Z)-1-(9-chloro-1-ethylbenzo[2,3]benzofuro[4,5-d]thiazol-2(1H)-ylidene)propan-2-one]	inhibitory effect	
CCN1/C(=C/C(C)=O)Sc2ccc3oc4ccc(C)cc4c3c21 [Compound 12, (Z)-1-(1-ethyl-9-methylbenzo[2,3]benzofuro[4,5-d]thiazol-2(1H)-ylidene)propan-2-one]	inhibitory effect	apoptosis-inducing activity on the cancer cells [2]: excellent apoptosis-inducing activity; apoptosis-inducing activity on the cancer cells [3]: excellent apoptosis-inducing activity; apoptosis-inducing activity on the cancer cells [4]: excellent apoptosis-inducing activity
O=C1NC(=S)S/C1=C\c1ccc2c(c1)CCO2 [Compound 4, (Z)-5-[(2,3-dihydrobenzofuran-5-yl)methylene]-2-thioxothiazolidin-4-one]	inhibitory effect	
CCN1/C(=C/C(C)=O)Sc2ccc3oc4cc(Cl)ccc4c3c21 [Compound 13, (Z)-1-(8-chloro-1-ethylbenzo[2,3]benzofuro[4,5-d]thiazol-2(1H)-ylidene)propan-2-one]	inhibitory effect	
O=C1NC(=S)S/C1=C\c1ccc2oc3ccccc3c2c1 [Compound 6, (Z)-5-[(dibenzo[b,d]furan-2-yl)methylene]-2-thioxothiazolidin-4-one]	significant inhibitory effect	
N=C1NC(=O)/C(=C/c2ccc3occc3c2)S1 [Compound 8, (Z)-5-[(benzofuran-5-yl)methylene]-2-iminothiazolidin-4-one]	significant inhibitory effect	
N=C1NC(=O)/C(=C/c2ccc3c(c2)CCO3)S1 [Compound 7, (Z)-5-[(2,3-dihydrobenzofuran-5-yl)methylene]-2-iminothiazolidin-4-one]	significant inhibitory effect	
CCN1/C(=C/C(C)=O)Sc2ccc3oc4cc(C)ccc4c3c21 [Compound 11, (Z)-1-(1-ethyl-8-methylbenzo[2,3]benzofuro[4,5-d]thiazol-2(1H)-ylidene)propan-2-one]	inhibitory effect	
CCN1/C(=C/C(C)=O)Sc2ccc3oc4cc(C)c(C)cc4c3c21 [Compound 10, (Z)-1-(8,9-dimethyl-1-ethylbenzo[2,3]benzofuro[4,5-d]thiazol-2(1H)-ylidene)propan-2-one]	inhibitory effect	
O=C1NC(=S)N/C1=C\c1ccc2oc3ccccc3c2c1 [Compound 15, (Z)-5-[(dibenzo[b,d]furan-2-yl)methylene]-2-thioxoimidazolidin-4-one]	inhibitory effect	inhibitory effect on the anchorage-independent growth [5]: inhibitory effect; inhibitory effect on the anchorage-independent growth [6]: inhibitory effect
